Data published in patent US20250122191A1, “COMPOUNDS AS BCL-2 INHIBITORS” (Fochon Biosciences, Ltd, priority 2021, published 2025).

Key:
Toledo cells = experiment: Cell proliferation assay (MTS), Toledo cells; type: cell-based; details: Homo sapiens, 72 h
How it was run: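 Toledo cells (RPMI-1640, 10% FBS) seeded at 30000 cells/well, rested 4 h, then exposed 72 h at 37 °C, 5% CO2 to compound at nine final concentrations, 1.5–10000 nM. Viability by MTS (2 h), absorbance at 490 nm. IC50 from the concentration-response.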

RS4;11-BCL-2 G101V cells = experiment: Cell proliferation assay (MTS), RS4;11-BCL-2 G101V engineered cells; type: cell-based; details: Homo sapiens, 120 h, read-out: RS4, 11 BCL2-G101V IC50
How it was run: (§1)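 Inhibition of mutant BCL-2 is inferred from reduced proliferation of RS4;11 cells stably overexpressing the mutant. Compounds are tested at 1.5–10000 nM for 120 h (G101V, F104L) or 72 h (D103E, D103Y), with MTS absorbance at 490 nm used to derive IC50.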

RS4;11-BCL-2 F104L cells = experiment: Cell proliferation assay (MTS), RS4;11-BCL-2 F104L engineered cells; type: cell-based; details: Homo sapiens, 120 h, read-out: RS4, 11 BCL2-F104L IC50
How it was run: as §1

RS4;11-BCL-2 D103E cells = experiment: Cell proliferation assay (MTS), RS4;11-BCL-2 D103E engineered cells; type: cell-based; details: Homo sapiens, 72 h, read-out: RS4, 11 BCL2-D103E IC50
How it was run: as §1

RS4;11-BCL-2 D103Y cells = experiment: Cell proliferation assay (MTS), RS4;11-BCL-2 D103Y engineered cells; type: cell-based; details: Homo sapiens, 72 h, read-out: RS4, 11 BCL2-D103Y IC50
Description: MTS testing kit was purchased from Promega (Madison, WI, USA). The RPMI-1640, Fetal bovine serum and Penicillin-Streptomycin were purchased from BI (Biological Industries, Beit Haemek, Israel). Puromycin was purchased from Beyotime (shanghai, China). Dimethyl sulfoxide (DMSO) was purchased from Sigma (St. Louis., MO, USA). RS4;11-BCL-2 G101V (Cobioer Lot. #: CBD2021063013P4), RS4;11-BCL-2 D103E (Cobioer Lot. #: CBD2021063013P4), RS4;11-BCL-2 D103Y (Cobioer Lot. #: CBD2022012101P4) and RS4;11-BCL-2 F104L (Cobioer Lot. #: CBD2021063014P4) cells were cultured in RPMI1640 supplemented with 1 ug/mL puromycin, 100 U/mL Penicillin-Streptomycin and 10% FBS.
To investigate whether a compound is able to inhibit the activity of BCL-2 mutation in cells, a mechanism-based assay using engineered cell lines stably overexpressing BCL-2 mutation (RS4;11-BCL-2 G101V, RS4;11-BCL-2 D103E, RS4;11-BCL-2 D103Y, and RS4;11-BCL-2 F104L) was developed. In this assay, the inhibition of BCL-2 mutation was reflected by the inhibition of cell proliferation of engineered RS4;11 cells. Cells were plated into 96-well plates at optimized cell density (RS4;11-BCL-2 G101V: 5000 cells/well; RS4;11-BCL-2 D103E: 7500 cells/well; RS4;11-BCL-2 D103Y: 7500 cells/well; RS4;11-BCL-2 F104L: 5000 cells/well). Plates were incubated at 37° C., with 5% CO2 for 4 h (RS4;11-BCL-2 G101V, RS4;11-BCL-2 F104L) and 24 h (RS4;11-BCL-2 D103E, RS4;11-BCL-2 D103Y), respectively. Compounds were serially diluted and added to the plates with the final concentrations of 10000, 3333.3, 1111.1, 370.4, 123.5, 41.2, 13.7, 4.6 and 1.5 nM. Plates were incubated at 37° C., with 5% CO2 for 120 h (RS4; 11-BCL-2 G101V, RS4; 11-BCL-2 F104L) and 72 h (RS4;11-BCL-2 D103E, RS4;11-BCL-2 D103Y), respectively. 20 μl MTS was added into each well and the plates were incubated at 37° C., with 5% CO2 exactly for 2 h. The absorbance was measured by a microplate reader at 490 nm. IC50 values were calculated using GraphPad Prism 8.0 software.

[1] = Pharmacokinetics assay in rats; type: in vivo; details: rat, male Sprague-Dawley rats, po, 5 mg/kg, plasma
Experimental: The purpose of this study was to determine the pharmacokinetics of Examples in male Sprague-Dawley rats (Supplied by Beijing Vital River Laboratory Animal Technology Co., Ltd.) following a single intravenous bolus injection at 1 mg/kg and oral gavage (PO) administration at 5 mg/kg.
Animals in Group 1 were administered with Examples by single intravenous bolus injection at 1 mg/kg, which was formulated in 10% DMSO (Sigma, Batch #LPCOS181): 60% PEG400 (Sigma, Batch #MKCH6281): 30% water, pH 5-6 at 1 mg/mL as a solution. Animals in Group 2 were administered with Examples by single oral gavage (PO) administration at 5 mg/kg, which was formulated in 10% DMSO (Sigma, Batch #BCCD6641): 60% PEG400 (Sigma, Batch #MKCL4921): 30% water at 1 mg/mL as a solution. Blood samples were collected at 0.083, 0.25, 0.5, 1, 2, 4, 8, 12 and 24 hours post-dose. Concentrations of Examples in plasma were determined by LC/MS/MS (LC: Waters UPLC; MS: Triple Quad 6500 plus).

SMILES | IC50 (Toledo cells) [nM] | IC50 (RS4;11-BCL-2 G101V cells) [nM] | IC50 (RS4;11-BCL-2 F104L cells) [nM] | IC50 (RS4;11-BCL-2 D103E cells) [nM] | IC50 (RS4;11-BCL-2 D103Y cells) [nM] | AUC(0-t) [1] [ng·h/mL] | half-life [1] [h] | Cmax ([1]; read-out: Cmax/C0) [ng/mL]
COc1cc(CN2CCN(C3CC4(CCN(c5ccc(C(=O)NS(=O)(=O)c6cnc(NC[C@H]7CC[C@](C)(O)CC7)c([N+](=O)[O-])c6)c(Oc6cnc7[nH]cc(F)c7c6)c5)CC4)C3)[C@H](c3ccccc3C(C)C)C2)cnc1C1CC1 [Example 255, 4-(2-((R)-4-((6-cyclopropyl-5-methoxypyridin-3-yl)methyl)-2-(2-isopropylphenyl)piperazin-1-yl)-7-azaspiro[3.5]nonan-7-yl)-2-((3-fluoro-1H-pyrrolo[2,3-b]pyridin-5-yl)oxy)-N-((6-((((1r,4r)-4-hydroxy-4-methylcyclohexyl)methyl)amino)-5-nitropyridin-3-yl)sulfonyl)benzamide] | 1 | 1 | 3 | 3 | 1 | – | – | –
COc1nc2[nH]cc(F)c2cc1Oc1cc(N2CCC3(CC2)CC(N2CCN(Cc4ccc(OC(F)F)cc4)C[C@H]2c2ccccc2C(C)C)C3)ccc1C(=O)NS(=O)(=O)c1cnc(NC[C@H]2CC[C@](C)(O)CC2)c([N+](=O)[O-])c1 [Example 344, 4-(2-((R)-4-(4-(difluoromethoxy)benzyl)-2-(2-isopropylphenyl)piperazin-1-yl)-7-azaspiro[3.5]nonan-7-yl)-2-((3-fluoro-6-methoxy-1H-pyrrolo[2,3-b]pyridin-5-yl)oxy)-N-((6-((((1r,4r)-4-hydroxy-4-methylcyclohexyl)methyl)amino)-5-nitropyridin-3-yl)sulfonyl)benzamide] | 1 | 1 | 1 | 1 | 10 | 5910 | 28.9 | 406
